According to patent US12630528B2, “Amino aryl derivative useful as diacylglycerol acyltransferase 2 inhibitor and use thereof” (LG CHEM, LTD., priority 2019, dated 2026):
pIC50: −log10 of the molar value.

Biological target: T1, human DGAT2 (Homo sapiens, UniProt Q96PD7)
T1 construct: FLAG (DYKDDDDK); made in house; host or cells: Sf-21 insect cells (BacPAK baculovirus system); membrane fraction used
T1 sequence (Q96PD7 1-388): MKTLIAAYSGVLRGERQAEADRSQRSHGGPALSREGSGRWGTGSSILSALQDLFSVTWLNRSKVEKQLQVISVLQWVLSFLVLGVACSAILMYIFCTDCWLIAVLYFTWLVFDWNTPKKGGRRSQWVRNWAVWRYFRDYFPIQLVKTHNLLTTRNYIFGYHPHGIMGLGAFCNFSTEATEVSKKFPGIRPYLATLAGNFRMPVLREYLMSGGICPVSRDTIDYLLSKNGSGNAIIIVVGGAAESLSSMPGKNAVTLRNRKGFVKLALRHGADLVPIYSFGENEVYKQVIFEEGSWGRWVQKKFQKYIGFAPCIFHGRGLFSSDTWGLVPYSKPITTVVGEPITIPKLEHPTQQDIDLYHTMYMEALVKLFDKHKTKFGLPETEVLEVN
Assay: DGAT2 enzyme activity inhibition, Phospholipid FlashPlate SPA
Type: biochemical
Conditions: recombinant human DGAT2 membrane protein from Sf-21 cells; inhibition of [14C]-TG production; 37° C.
Summary of the method: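 Sf-21 membranes expressing recombinant human DGAT2 (2 μg) preincubated with compound (3 nM–10 μM, 1% DMSO) and 50 μM 1,2 sn-oleoyl glycerol, 20 min at 37 °C, then 1 μM [14C]oleoyl-CoA for 15 min. [14C]-TG counted by SPA; inhibition as % of untreated.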

pIC50	SMILES
6.30	CCOc1cccnc1O[C@@H]1CCCN(c2cncc(Nc3cccc(-c4ccc(OC(C)(C)C(=O)O)cc4)n3)n2)C1 [Example 83, (R)-2-(4-(6-((6-(3-((3-ethoxypyridin-2-yl)oxy)piperidin-1-yl)pyrazin-2-yl)amino)pyridin-2-yl)phenoxy)-2-methylpropanoic Acid]
6.10	CCOc1ccccc1O[C@@H]1CCCN(c2cncc(Nc3nccc(N4CCC(C(C)(C)C(=O)O)CC4)n3)n2)C1 [Example 126, (R)-2-(1-(2-((6-(3-(2-ethoxyphenoxy)piperidin-1-yl)pyrazin-2-yl)amino)pyrimidin-4-yl)piperidin-4-yl)-2-methylpropanoic Acid]
6.62	CCOc1cccnc1O[C@@H]1CCCN(c2cncc(Nc3ccnc(-c4cccc(CC(C)(C)C(=O)O)c4)n3)n2)C1 [Example 171, (R)-3-(3-(4-((6-(3-((3-ethoxypyridin-2-yl)oxy)piperidin-1-yl)pyrazin-2-yl)amino)pyrimidin-2-yl)phenyl)-2,2-dimethylpropanoic Acid]
6.64	CCOc1cccnc1O[C@@H]1CCCN(c2cncc(Nc3nccc(-c4ccc(C(C)(C)C(=O)O)cc4)n3)n2)C1 [Example 144, (R)-2-(4-(2-((6-(3-((3-ethoxypyridin-2-yl)oxy)piperidin-1-yl)pyrazin-2-yl)amino)pyrimidin-4-yl)phenyl)-2-methylpropanoic Acid]
6.33	CCOc1cccnc1O[C@@H]1CCCN(c2cncc(Nc3nc(-c4cccc(CC(C)(C)C(=O)O)c4)cc(C(F)(F)F)n3)n2)C1 [Example 166, (R)-3-(3-(2-((6-(3-((3-ethoxypyridin-2-yl)oxy)piperidin-1-yl)pyrazin-2-yl)amino)-6-(trifluoromethyl)pyrimidin-4-yl)phenyl)-2,2-dimethylpropanoic Acid]
< 5.00	CCOc1ccccc1O[C@@H]1CCCN(c2cncc(Nc3cc(C(=O)O)ccn3)n2)C1 [Example 33, (R)-2-((6-(3-(2-ethoxyphenoxy)piperidin-1-yl)pyrazin-2-yl)amino)isonicotinic Acid]
5.89	CCOc1cccnc1O[C@@H]1CCCN(c2cncc(Nc3cccc(Oc4cccc(C(=O)O)c4)n3)n2)C1 [Example 88, (R)-3-((6-((6-(3-((3-ethoxypyridin-2-yl)oxy)piperidin-1-yl)pyrazin-2-yl)amino)pyridin-2-yl)oxy)benzoic Acid]
5.20	CCOc1ccccc1O[C@@H]1CCCN(c2cncc(Nc3nccs3)n2)C1 [Example 3, (R)—N-(6-(3-(2-ethoxyphenoxy)piperidin-1-yl)pyrazin-2-yl)thiazol-2-amine]
5.06	CCOc1ccccc1O[C@@H]1CCCN(c2cncc(Nc3nc4ccc(S(C)(=O)=O)cc4s3)n2)C1 [Example 7, (R)—N-(6-(3-(2-ethoxyphenoxy)piperidin-1-yl)pyrazin-2-yl)-6-(methanesulfonyl)benzo[d]thiazol-2-amine]

The next lines start with the compound.

SMILES	pIC50
CCOc1ccccc1O[C@@H]1CCCN(c2cncc(Nc3nccc(N4CCC(CC(=O)O)CC4)n3)n2)C1 [Example 125, (R)-2-(1-(2-((6-(3-(2-ethoxyphenoxy)piperidin-1-yl)pyrazin-2-yl)amino)pyrimidin-4-yl)piperidin-4-yl)acetic Acid]	5.74
CCOc1ccccc1O[C@@H]1CCCN(c2cncc(Nc3cccc(N4CCC(C(=O)O)CC4)n3)n2)C1 [Example 56, (R)-1-(6-((6-(3-(2-ethoxyphenoxy)piperidin-1-yl)pyrazin-2-yl)amino)pyridin-2-yl)piperidine-4-carboxylic Acid]	6.89
CCOc1ccccc1O[C@@H]1CCCN(c2cncc(Nc3nc(-c4ccccc4)cs3)n2)C1 [Example 4, (R)—N-(6-(3-(2-ethoxyphenoxy)piperidin-1-yl)pyrazin-2-yl)-4-phenylthiazol-2-amine]	< 5.00
CCOc1ccccc1O[C@@H]1CCCN(c2cncc(Nc3cccc(-c4cccc(C(C)(C)C(=O)O)c4)n3)n2)C1 [Example 60, (R)-2-(3-(6-((6-(3-(2-ethoxyphenoxy)piperidin-1-yl)pyrazin-2-yl)amino)pyridin-2-yl)phenyl)-2-methylpropanoic Acid]	6.66
CCOc1ccccc1O[C@@H]1CCCN(c2cncc(Nc3cccc(-c4ccc(CC(C)(C)C(=O)O)cc4)c3)n2)C1 [Example 30, (R)-3-(3′-((6-(3-(2-ethoxyphenoxy)piperidin-1-yl)pyrazin-2-yl)amino)-[1,1′-biphenyl]-4-yl)-2,2-dimethylpropanoic Acid]	5.62
CCOc1ccccc1O[C@@H]1CCCN(c2cncc(Nc3nc(-c4cccc(CC(C)(C)C(=O)O)c4)cc(C(F)(F)F)n3)n2)C1 [Example 167, (R)-3-(3-(2-((6-(3-(2-ethoxyphenoxy)piperidin-1-yl)pyrazin-2-yl)amino)-6-(trifluoromethyl)pyrimidin-4-yl)phenyl)-2,2-dimethylpropanoic Acid]	6.17
CCOc1ccccc1O[C@@H]1CCCN(c2cncc(Nc3cccc(N4CCC(C(C)(C)C(=O)O)CC4)n3)n2)C1 [Example 58, (R)-2-(1-(6-((6-(3-(2-ethoxyphenoxy)piperidin-1-yl)pyrazin-2-yl)amino)pyridin-2-yl)piperidin-4-yl)-2-methylpropanoic Acid]	6.51
CCOc1ccccc1O[C@@H]1CCCN(c2cncc(Nc3nc(-c4cc(CC(C)(C)C(=O)O)ccc4F)ccc3F)n2)C1 [Example 107, (R)-3-(3-(6-((6-(3-(2-ethoxyphenoxy)piperidin-1-yl)pyrazin-2-yl)amino)-5-fluoropyridin-2-yl)-4-fluorophenyl)-2,2-dimethylpropanoic Acid]	6.59
CCOc1cccnc1O[C@@H]1CCCN(c2cncc(Nc3cccc(Oc4ccc(C(C)(C)C(=O)O)cc4)n3)n2)C1 [Example 94, (R)-2-(4-((6-((6-(3-((3-ethoxypyridin-2-yl)oxy)piperidin-1-yl)pyrazin-2-yl)amino)pyridin-2-yl)oxy)phenyl)-2-methylpropanoic Acid]	6.64
CCOc1ccccc1O[C@@H]1CCCN(c2cncc(Nc3nccc(N4CCC[C@@H](C(=O)O)C4)n3)n2)C1 [Example 121, (R)-1-(2-((6-((R)-3-(2-ethoxyphenoxy)piperidin-1-yl)pyrazin-2-yl)amino)pyrimidin-4-yl)piperidine-3-carboxylic Acid]	6.23
CCOc1ccccc1O[C@@H]1CCCN(c2cncc(Nc3nc(-c4cccc(CC(C)(C)C(=O)O)c4)ccc3F)n2)C1 [Example 100, (R)-3-(3-(6-((6-(3-(2-ethoxyphenoxy)piperidin-1-yl)pyrazin-2-yl)amino)-5-fluoropyridin-2-yl)phenyl)-2,2-dimethylpropanoic Acid]	6.37
CCOc1ccccc1O[C@@H]1CCCN(c2cncc(Nc3nc4cc(CCC(=O)O)ccc4o3)n2)C1 [Example 16, (R)-3-(2-((6-(3-(2-ethoxyphenoxy)piperidin-1-yl)pyrazin-2-yl)amino)benzo[d]oxazol-5-yl)propanoic Acid]	< 5.00
CCOc1ccccc1O[C@@H]1CCCN(c2cncc(Nc3cc(-c4ccccc4)ccn3)n2)C1 [Example 41, (R)-6-(3-(2-ethoxyphenoxy)piperidin-1-yl)-N-(4-phenylpyridin-2-yl)pyrazin-2-amine]	6.22
CCOc1ccccc1O[C@@H]1CCCN(c2cncc(Nc3nccc(N4CCC[C@@H](/C=C/C(=O)O)C4)n3)n2)C1 [Example 129, (E)-3-((S)-1-(2-((6-((R)-3-(2-ethoxyphenoxy)piperidin-1-yl)pyrazin-2-yl)amino)pyrimidin-4-yl)piperidin-3-yl)acrylic Acid]	6.10
